Among the data in patent publication US11155567B2, “Sting agonist compounds and methods of use” (Mersana Therapeutics, Inc., priority 2019, dated 2021) are EC50 values, retold here.

Holding throughout (format): cell-based
In experiment [1] the target is T1, R232H human STING variant (Homo sapiens, UniProt Q86WV6).
T1 construct: host or cells: THP1-Dual KI-hSTING-H232 cells, generated from THP1-Dual KO-STING cells
The experiment can be described thus: IRF3 reporter induction in THP1-Dual KI-hSTING-H232 Cells. To be noted: THP1-Dual KI-hSTING-H232 Cells (R232H Haplotype). The protocol: (§1) THP1-Dual™ Human Monocytes cells with the homozygous HAQ allele, known to be a natural variant allele of STING occurring in 20% of the human population (Invivogen) have been engineered with two independent gene reporter systems: a secreted embryonic alkaline phosphatase (SEAP) reporter gene for NFkB activity, and secreted luciferase reporter for […] (IRF3) activity were used. 4×10^5 THP1-Dual™ cells were incubated with test Compounds in a 5-fold titration steps from 1 to 0.0128 μM in RPMI media with 10% FBS, for 24 hours at 37° C. with 5% CO2. Cell culture supernatants (20 μl) from each incubated sample was added to resuspended QUANTI-Blue™ Solution (Invivogen, 180 μl) in each well of a flat-bottom 96-well plate, then incubated for 2 h. NFkB levels were evaluated using a spectrophotometer at 620-655 nm.
(§2) To evaluate IRF3 reporter levels, cell culture supernatant (20 μl) from each incubated sample was added to QUANTI-Luc™ assay solution (Invivogen, 50 μl), and the luminescence was measured with a SpectraMax M3 spectrophotometer (Molecular Devices).
(§3) NFkB and IRF3 reporter levels were also determined for THP1-Dual™ KI-hSTING-H232 Cells and THP1-Dual™ KI-hSTING-R232 Cells. THP1-Dual™ KI-hSTING-H232 Cells (R232H Haplotype) were generated from THP1-Dual™ KO-STING cells by knockin of the intronless coding sequence (from the ATG to TGA) of the R232H human STING variant (Invivogen). R232H has been identified as a natural variant allele of STING occurring in ˜14% of the human population. THP1-Dual™ KI-hSTING-R232 Cells (R232 Haplotype) were generated from THP1-Dual™ KO-STING cells by knockin of the intronless coding sequence (from the ATG to the TGA) of the R232 hSTING variant. Genomic studies indicate that this variant, which contains an arginine at position 232 (R232), is the most prevalent variant with an occurrence (homozygous allele) of ˜45-58% in the human population.
(§4) The EC50 value was determined from the dose response curve based on reference Compounds. Table 2a provides the results for IRF3 reporter induction THP1-Dual™ Human Monocytes cells and Table 2b provides the results for IRF3 reporter induction in THP1-Dual™ KI-hSTING-H232 Cells and THP1-Dual™ KI-hSTING-R232 Cells (“A” means <30 nM; “B” means ≥30 nM and <100 nM; “C” means ≥100 nM).

The next experiment concerns the target T2, Human STING (HAQ allele) (Homo sapiens, UniProt Q86WV6, G230A/H232R/R293Q/R71H).
T2 construct: THP1-Dual™ Human Monocytes cells with the homozygous HAQ allele; host or cells: THP1-Dual human monocytes
Kind of experiment: IRF3 reporter induction in THP1-Dual Human Monocytes cells (homozygous HAQ STING allele). To be noted: IRF3 reporter (secreted luciferase), 24 hours incubation. How it is done:
as §1, §2, §4

For another experiment, the target named is T3, R232 hSTING variant (Homo sapiens, UniProt Q86WV6, H232R).
T3 construct: expressed in transfected cells; host or cells: THP1-Dual KI-hSTING-R232 cells, generated from THP1-Dual KO-STING cells
T3 sequence (Q86WV6 whole entry H232R): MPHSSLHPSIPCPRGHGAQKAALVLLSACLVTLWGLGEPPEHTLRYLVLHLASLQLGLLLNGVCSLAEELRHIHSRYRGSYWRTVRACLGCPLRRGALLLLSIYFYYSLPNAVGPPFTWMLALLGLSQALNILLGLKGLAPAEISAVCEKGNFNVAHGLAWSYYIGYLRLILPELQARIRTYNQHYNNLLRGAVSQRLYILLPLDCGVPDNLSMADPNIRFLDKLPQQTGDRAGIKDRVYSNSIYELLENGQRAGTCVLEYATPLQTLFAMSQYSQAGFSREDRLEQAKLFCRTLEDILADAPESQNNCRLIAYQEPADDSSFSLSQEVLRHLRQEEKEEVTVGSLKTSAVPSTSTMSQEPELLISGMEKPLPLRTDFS
Kind of experiment: IRF3 reporter induction in THP1-Dual KI-hSTING-R232 Cells. To be noted: THP1-Dual KI-hSTING-R232 Cells (R232 Haplotype). The protocol:
as §1, §2, §3, §4

For a further experiment, the target named is T4, Human STING (Homo sapiens, UniProt Q86WV6, G230A/H232R/R293Q/R71H).
T4 construct: host or cells: THP1-Dual cells, digitonin-permeabilized
T4 sequence (Q86WV6 whole entry R71H/G230A/H232R/R293Q): as the sequence (Q86WV6 whole entry H232R) above, with R71H, G230A, R293Q counted along it
The experiment can be described thus: Activation of human STING signaling in permeabilized THP1 cells, IRF3 induction. To be noted: THP1-Dual cells permeabilized with digitonin buffer 30 minutes on ice, then 24 h in RPMI media. The protocol:
as §2
4×10^5 THP1-Dual™ cells (NF-κB-SEAP and IRF-Lucia luciferase Reporter Monocytes, Invivogen) were incubated with test Compounds in a 5-fold titration steps from […] in permeabilized buffer (50 mM HEPES pH 7.0, 100 mM KCl, 3 mM MgCl2, 85 mM sucrose, 0.2% BSA, 1 mM ATP, 0.1 mM GTP, 0.1 mM TTP, 1 μg/ml digitonin) for 30 minutes on ice. Cells were then washed and incubated in a fresh RPMI media with 10% FBS at 37° C. with 5% CO2 for 24 h. Cell culture supernatants from each sample were collected and NFkB and IRF3 were evaluated as above. Table 3 provides the results for IRF3 induction (“A” means <1 μM; “B” means ≥1 μM and <50 μM; “C” means ≥50 μM).

T2 sequence (Q86WV6 whole entry R71H/G230A/H232R/R293Q): as the sequence (Q86WV6 whole entry H232R) above, with R71H, G230A, R293Q counted along it
T1 sequence (Q86WV6 whole entry, stated change not applied): as the sequence (Q86WV6 whole entry H232R) above, with R232H counted along it

For `CCc1nc(C)oc1C(=O)Nc1nc2cc(C(N)=O)cc(OC)c2n1C/C=C/Cn1c(NC(=O)c2oc(C)nc2CC)nc2cc(C(N)=O)cc(OCCCO)c21` [compound 9], the EC50 was under 30 nM in experiment [1], 30 to 100 nM on Human STING (HAQ allele), under 30 nM on R232 hSTING variant and under 1000 nM on Human STING.
In the case of `CCc1nc(C)oc1C(=O)/N=c1\sc2cc(C(N)=O)cc(OC)c2n1C/C=C/Cn1c(NC(=O)c2oc(C)nc2CC)nc2cc(C(N)=O)cc(OCCCO)c21` [compound 63], the 50% effective concentration (EC50) in experiment [1] was under 30 nM; on Human STING (HAQ allele), at least 100 nM; on R232 hSTING variant it was under 30 nM; on Human STING, under 1000 nM.
As to `CCc1nc(C)oc1C(=O)/N=c1\sc2cc(C(N)=O)cc(OC)c2n1C/C=C/Cn1c(NC(=O)c2oc(C)nc2CC)nc2cc(C(N)=O)cc(OCCCC(=O)O)c21` [compound 66], the EC50 in experiment [1] was at least 100 nM; at Human STING (HAQ allele) it was at least 100 nM; on R232 hSTING variant, under 30 nM; on Human STING, under 1000 nM.
In the case of `CCc1nc(C)oc1C(=O)Nc1nc2cc(C(N)=O)cc(OCCCO)c2n1C/C=C/Cn1/c(=N/C(=O)c2cc(C)nn2CC)sc2cc(C(N)=O)cc(OC)c21` [compound 69], the EC50 in experiment [1] was under 30 nM; on Human STING (HAQ allele), at least 100 nM; on R232 hSTING variant, under 30 nM.
For `CCc1nc(C)oc1C(=O)Nc1nc2cc(C(N)=O)cnc2n1C/C=C/Cn1c(NC(=O)c2oc(C)nc2CC)nc2cc(C(N)=O)cc(OCCCO)c21` [compound 95], the concentration giving a half-maximal response (EC50) in experiment [1] is under 30 nM; on Human STING (HAQ allele) it was 30 to 100 nM; at R232 hSTING variant, under 30 nM; at Human STING it was under 1000 nM.
Take `CCc1nc(C)oc1C(=O)/N=c1\sc2cc(C(N)=O)cnc2n1C/C=C/Cn1c(NC(=O)c2oc(C)nc2CC)nc2cc(C(N)=O)cc(OCCCO)c21` [compound 109]: the EC50 is under 30 nM in experiment [1], 30 to 100 nM at Human STING (HAQ allele), under 30 nM on R232 hSTING variant and under 1000 nM on Human STING.
In the case of `CCc1nc(C)oc1C(=O)/N=c1\sc2cc(C(N)=O)cc(OCCCO)c2n1C/C=C/Cn1c(NC(=O)c2oc(C)nc2CC)nc2cc(C(N)=O)cnc21` [compound 146], the EC50 was under 30 nM in experiment [1], at least 100 nM on Human STING (HAQ allele), under 30 nM on R232 hSTING variant and under 1000 nM at Human STING.
For `CCc1nc(C)oc1C(=O)/N=c1\sc2cc(C(N)=O)cc(OCCCO)c2n1C/C=C/Cn1c(NC(=O)c2cc(C)nn2CC)nc2cc(C(N)=O)cnc21` [compound 148], the EC50 is under 30 nM in experiment [1], at least 100 nM at Human STING (HAQ allele), under 30 nM at R232 hSTING variant and under 1000 nM on Human STING.
With `CCc1nc(C)oc1C(=O)/N=c1\sc2nc(C(N)=O)cnc2n1C/C=C/Cn1c(NC(=O)c2oc(C)nc2CC)nc2cc(C(N)=O)cc(OCCCO)c21` [compound 167], the values for the EC50 (in experiment [1]; on Human STING (HAQ allele); on R232 hSTING variant) were 30 to 100 nM, at least 100 nM and 30 to 100 nM, respectively.
